Measurements reported in article PMC10065799, “High-throughput profiling of sequence recognition by tyrosine kinases and SH2 domains using bacterial peptide display” (eLife, 2023).

Legend:
Assay in all cases: pTyr-Var library bacterial peptide display kinase screen (enrichment scores)
c-Src kinase domain = c-Src kinase domain (Homo sapiens, UniProt P12931); assay type: biochemical; details: sheet "Src";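 also: log2 fold change in enrichment of variant over reference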
Fer kinase domain = assay type: biochemical, mouse; details: sheet "Fer"
EPHB1 kinase domain = assay type: biochemical, human; details: for Screen: sheet EPHB1, effect of the variant peptide relative to its reference peptide in the pTyr-Var library screen (enrichment scores)
c-Abl kinase domain = molecular target: T1, c-Abl kinase domain (Mus musculus, UniProt P00520); assay type: biochemical;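 also: log2 fold change in enrichment of variant over reference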
T1 sequence (P00520 242-493 limits assumed): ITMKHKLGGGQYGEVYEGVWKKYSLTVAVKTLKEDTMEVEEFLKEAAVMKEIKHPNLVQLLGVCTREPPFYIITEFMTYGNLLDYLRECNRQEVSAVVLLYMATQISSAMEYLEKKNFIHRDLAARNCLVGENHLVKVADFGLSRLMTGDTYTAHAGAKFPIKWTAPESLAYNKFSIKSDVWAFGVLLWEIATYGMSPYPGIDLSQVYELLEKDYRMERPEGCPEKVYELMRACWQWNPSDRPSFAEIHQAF

[1] = variant peptide versus its reference peptide in the pTyr-Var library screen
[2] = value of the variant peptide against its reference peptide in the pTyr-Var library screen with Fer
[3] = sheet "Abl", effect of variant peptide relative to its reference peptide in pTyr-Var library screen (enrichment)
[4] = variant peptide relative to its reference peptide, pTyr-Var library screen enrichment
[5] = effect of the variant peptide relative to its reference peptide in the pTyr-Var library screen
[6] = fig5-data2, sheet "Abl", Screen for the variant/reference peptide pair, pTyr-Var library

## KGSLPYSLILD [PKD1L2_Y406_N407S]
c-Src kinase domain; [1]
  Screen: 1.59

## KKHIPYRQHKS [CSNK1G2_Y206_E208Q]
Fer kinase domain; [2]
  Screen: 0.3167
EPHB1 kinase domain
  Screen: 0.2176

## KNNSIYVLANI [VNN1_Y134_V136L]
c-Abl kinase domain; [3]
  Screen: -3.297
Fer kinase domain; [4]
  Screen: 1.88

## KRAAIYNPVIF [RHO_Y301_S297R_YF]
c-Src kinase domain; [1]
  Screen: -1.114
Fer kinase domain; [4]
  Screen: -0.6585

## KVPAIYGVGTR [CPS1_Y162_D165G]
c-Src kinase domain; [5]
  Screen: 1.669

## LKRCQYVTKKV [ALDOA_Y204_E207K]
EPHB1 kinase domain
  Screen: -1.465

## LLASGYDSPIN [ABLIM1_Y638_R637G]
EPHB1 kinase domain
  Screen: -0.7648

## LLSVAYKNVVR [YWHAZ_Y48_G53R]
c-Abl kinase domain; [3]
  Screen: 1.295

## LLTKVYVVEGS [ZMPSTE24_Y253_P248L]
c-Abl kinase domain; [3]
  Screen: -5.536

## LQKNIYSEELR [LMNA_Y211_F206L]
c-Src kinase domain; [5]
  Screen: -1.475
EPHB1 kinase domain
  Screen: 0.6923

## LREKVYVSLEA [RXRA_Y397_A398V]
c-Src kinase domain; [1]
  Screen: -2.342

## LVLIKYLPEWT [PSEN1_Y240_F237L]
c-Abl kinase domain; [6]
  Screen: 1.753

## MFNPCYGLFEF [NEDD4L_Y680_Y679C_YF]
c-Src kinase domain; [1]
  Screen: -0.1736
Fer kinase domain; [2]
  Screen: -0.1579

## MKKMHYVDPDR [ST3GAL5_Y99_H104R]
c-Abl kinase domain; [3]
  Screen: -0.8054

## MLEAPYVDRNS [F10_Y384_V382A]
c-Abl kinase domain; [6]
  Screen: 1.1

## MNKNAYHNVTT [ST3GAL6_Y306_A311T]
c-Abl kinase domain; [3]
  Screen: -0.8996

## NAGAFYVLSTL [FLVCR2_Y325_A326V]
Fer kinase domain; [2]
  Screen: -2.63

## NPQKSYFICLF [WAS_Y83_R86C_YF]
c-Abl kinase domain; [3]
  Screen: 3.12

## PAIFTYDEFKK [COL8A2_Y648_T645I_YF]
c-Src kinase domain; [5]
  Screen: 0.8342
Fer kinase domain; [2]
  Screen: -2.501

## PKDSAYVTWEP [TTN_Y20731_S20726P]
c-Src kinase domain; [1]
  Screen: 0.3327
Fer kinase domain; [4]
  Screen: 0.6125

## PQAVTYAEVKH [LILRB4_Y360_K362E]
c-Src kinase domain; [5]
  Screen: 2.83
EPHB1 kinase domain
  Screen: 2.401

## PSPTKYSLSPS [RANBP2_Y785_R784K]
c-Abl kinase domain; [6]
  Screen: 1.871

## PVGVLYEVKVF [PTS_Y128_K129E_YF]
Fer kinase domain; [4]
  Screen: 1.639
EPHB1 kinase domain
  Screen: 0.4109

## QAIDEYEKWLE [MAP9_Y603_N601D]
EPHB1 kinase domain
  Screen: -0.2835

## QDRTFYERVRT [SPEN_Y633_S635R_YF]
Fer kinase domain; [4]
  Screen: -1.346

## QMIETYFDFRV [NSMF_Y506_L511V]
c-Src kinase domain; [1]
  Screen: -0.8869
EPHB1 kinase domain
  Screen: -0.6862

## QRASDYFSQQM [GBP6_Y333_A331S_YF]
EPHB1 kinase domain
  Screen: 1.684

## QRRNVYFFSFL [PTEN_Y176_Y174N_YF]
Fer kinase domain; [2]
  Screen: -1.418

## QTEAPYRFIFM [PTPN11_Y511_Q510P_YF]
Fer kinase domain; [2]
  Screen: 2.526

## QTSSNYDDAMQ [ZNF281_Y531_I527T]
c-Abl kinase domain; [3]
  Screen: -4.858

## RDLHTYIMPAH [PNMT_Y256_R254H]
EPHB1 kinase domain
  Screen: -2.793

## RILENYGADID [DNAH5_Y596_L591R]
c-Abl kinase domain; [6]
  Screen: -0.1652

## RKLVDYDSAQH [BIN1_Y150_R154Q]
c-Abl kinase domain; [6]
  Screen: -0.7012

## RLAKRYLIWEC [SCN5A_Y694_Q692K]
c-Abl kinase domain; [3]
  Screen: -1.185

## RSSGSYGGGGQ [HNRNPA1_Y341_P340S]
EPHB1 kinase domain
  Screen: 0.1057

## SEKISYVFMKR [SSX7_Y48_L43S_YF]
EPHB1 kinase domain; sheet "EPHB1", variant seq vs reference seq, bacterial peptide display enrichment
  Screen (variant relative to reference peptide, measured in the pTyr-Var library screen): -1.247

## SGEKPYKCSVC [ZNF543_Y283_E287V]
c-Abl kinase domain; [3]
  Screen: 3.958

## SGSFRYGSSFE [SELE_Y390_C394F]
c-Abl kinase domain; [3]
  Screen: -0.02524

## SKHHLYSDLQT [PTCHD1_Y84_R82H]
Fer kinase domain; [2]
  Screen: 1.431

## SSFDTYHLSRE [KIR3DL2_Y253_I252T_YF]
c-Src kinase domain; [5]
  Screen: -1.121

## SSSNPYSTVTV [ACTN2_Y599_M604V]
c-Src kinase domain; [5]
  Screen: -0.5875
Fer kinase domain; [2]
  Screen: -0.1641

## SSTAMYSAAGR [PSMB1_Y8_P11A]
c-Abl kinase domain; [6]
  Screen: -0.5664

## TDTQLYGRFGS [ITGA2B_Y384_G380D]
c-Src kinase domain; [5]
  Screen: -0.04787

## TQPSPYAVFLF [RPGRIP1_Y823_R827L_YF]
c-Src kinase domain; [1]
  Screen: -0.4188
Fer kinase domain; [4]
  Screen: -0.3535
EPHB1 kinase domain
  Screen: -0.3084

## TRDVNYGWIIH [MT-CYB_Y75_R80H]
Fer kinase domain; [2]
  Screen: 3.39

## TTPFNYSFIFK [RAB14_Y8_A4T_YF]
EPHB1 kinase domain
  Screen: 0.03762

## TVHPGYGFLSE [PCCA_Y143_A138T]
c-Abl kinase domain; [6]
  Screen: 1.846

## VDEVLYEDSSA [MTHFS_Y197_T202A]
Fer kinase domain; [2]
  Screen: -0.2341

## VFGVSYDEFRF [CFTR_Y512_I507V_YF]
c-Src kinase domain; [5]
  Screen: 0.2836
Fer kinase domain; [2]
  Screen: 0.375

## VIIVLYFSLWK [SLC6A2_Y249_V245I]
c-Abl kinase domain; [3]
  Screen: -0.9059

## VKMLPYTEVTR [GDI1_Y93_L92P]
EPHB1 kinase domain
  Screen: -2.754

## VQVAFYTVMMN [SPATA17_Y84_M86V_YF]
Fer kinase domain; [4]
  Screen: -1.379

## VVKTVYSLQPS [KNSTRN_Y87_P92S]
c-Src kinase domain; [5]
  Screen: -0.2694

## VVSLFYGTALF [OR10C1_Y251_M246V]
c-Src kinase domain; [1]
  Screen: -0.3109
